In PubChem BioAssay AID1918938 (Molecular Pharmacology Branch, DTP, NCI, 2023) one finds IC50 and viability, T/C data, which are given here for 4 molecules.

SMILES strings stand for the structures. Several values for one entry are separate records, joined by “and”; a condition that tells them apart may be missing. Equal entries are not always repeated.

For this test, the system named is 556581-035-R-J1-PDC complex spheroid viability. Briefly: Anticancer human tumor 556581-035-R-J1-PDC patient-derived ovarian carcinoma cell line growth inhibition. The settings on record: for viability, T/C: stronger effect = lower value. From the text:
Multicellular complex tumor spheroid response to LSD1 Inhibitor Iadademstat in combination with a variety of drugs and investigational agents in selected tumor cell lines
The current study was undertaken to assess response to LSD1 inhibitors in combination with standard-of-care drugs and investigational agents in solid tumor complex spheroid models as well as in the K-562 leukemia. Complex spheroids include a stromal component modeled by human endothelial cells (HUVEC) and fibroblasts modeled by human mesenchymal stem cells (MSCs). The concentration ranges selected for each drug and investigational agent were based upon clinically achievable concentrations if the clinical Cmax of the agent was known.
Compounds. The drugs and investigational agents used in this study are listed on Table 1. All of the agents used, including staurosporine (NSC755774) and gemcitabine (NSC613327), were obtained from the Developmental Therapeutics Program, NCI. FDA-approved anticancer drugs are available from the NCI at http://dtp.nci.nih.gov/branches/dscb/oncology_drugset_explanation.html. Drugs and investigational agents were >95% pure by proton nuclear magnetic resonance (NMR) and liquid chromatography/mass spectrometry (LC/MS). Stock solutions were prepared at 400x in DMSO, stored at -70 degrees C, and diluted in fresh medium prior to their use. The final concentration of DMSO in cell culture wells never exceeded 0.25% (v/v). The FDA-approved anticancer drug set is available from the Developmental Therapeutics Program at https://dtp.cancer.gov/organization/dscb/obtaining/available_plates.htm. All drugs and investigational agents were tested over a range starting from a high concentration at or near the clinical Cmax and decreasing in half-log increments. If the clinical Cmax for an agent had not been determined, the highest concentration tested was 10 microM.
Cell Lines. The patient-derived cancer cell (PDC) lines: 292921-168-R-J2-PDC, K24384-001-R-PDC, and 521955-158-R2-J5-PDC pancreatic carcinomas, 556581-035-R-J1 ovarian carcinoma, 324938-238-R-J1-PDC, 855422-203-R-J1-PDC and 883617-216-R-J1-PDC urothelial bladder carcinomas, 743489-274-T-PDC renal cell carcinoma, 138582-R-J1 Merkel cell tumor, K60290-347-R-J1 and K57222-313-R-J1-PDC glioblastomas, 653999-131-R-J2-PDC, LG0703-F948-PDC, and 349418-098-R-PDC non-small cell lung carcinomas, 885512-296-R-J2-PDC, 171881-019-R-J1-PDC breast carcinomas and 186277-243-T-J2-PDC and 233499-124-R-J2-PDC colon carcinomas were obtained from the NCI Patient-Derived Models Repository (PDMR, https://pdmr.cancer.gov). The established cell lines NCI/ADR-RES (RRID:CVCL_14520 and OVCAR-5 (RRID:CVCL_1628) ovarian carcinomas, 786-O (RRID:CVCL_1051) and A498 (RRID:CVCL_A498) renal cell carcinoma, NCI-H211 (ATCC, cat. CRL-5824; RRID:CVCL_1529), NCI-H196 (ATCC, cat. CRL-5823, RRID:CVCL_1509), SW 1271 (ATCC, cat. CRL-2177, RRID:CVCL_1716) and NCI-H1876 (ATCC, cat. CRL-5902, RRID:CVCL_1503) small cell lung carcinomas, MDA-MB-231 (RRID:CVCL_0062) and MDA-MB-468 (RRID:CVCL_0419)breast carcinomas (10-12). Pooled donor human umbilical vein endothelial cells (HUVEC, Lonza, cat. CC-2519) and human mesenchymal stem cells (hMSC, Lonza, cat. PT-2501) were purchased from Lonza (Walkersville, MD).
Cell Culture. All cells were maintained in an incubator at 37 degrees C and 5% CO2 with 95% humidity. The PDC lines were cultured according to standard operating procedures established by the NCI PDMR (https://pdmr.cancer.gov). Briefly all PDCs were thawed and cultured in Matrigel-coated flasks prepared with a working solution of 1X Ham's F-12 nutrient mix, without supplementation (Invitrogen, Waltham, MA, cat. 11765054), 100 U/mL penicillin-streptomycin (Invitrogen, cat. 15140122), and 2.5% Matrigel (Corning Inc., Corning, NY, cat. 354248) for the first three passages. […]

[1] abbreviates: curve of first compound, second compound 0.1 µM.
[2] abbreviates: curve of first compound, second compound 0.316 µM.
Where [3] appears, read: curve of first compound, second compound 1 µM.
[4] abbreviates: curve of first compound, second compound 3.16 µM.
Where [5] appears, read: curve of first compound, second compound 10 µM.
The mark [6] stands for this setting: second compound 0.1 µM, first compound 0.00316 µM.
The mark [7] stands for this setting: second compound 0.1 µM, first compound 0.01 µM.
Setting [8] is: second compound 0.1 µM, first compound 0.0316 µM.
Setting [9] is: second compound 0.1 µM, first compound 0.1 µM.
[10] abbreviates: second compound 0.316 µM, first compound 0.00316 µM.
Where [11] appears, read: second compound 0.316 µM, first compound 0.01 µM.
Where [12] appears, read: second compound 0.316 µM, first compound 0.0316 µM.
Setting [13] is: second compound 0.316 µM, first compound 0.1 µM.
Setting [14] is: second compound 1 µM, first compound 0.00316 µM.
The mark [15] stands for this setting: second compound 1 µM, first compound 0.01 µM.
Setting [16] is: second compound 1 µM, first compound 0.0316 µM.
[17] abbreviates: second compound 1 µM, first compound 0.1 µM.
Setting [18] is: second compound 3.16 µM, first compound 0.00316 µM.
[19] abbreviates: second compound 3.16 µM, first compound 0.01 µM.
Where [20] appears, read: second compound 3.16 µM, first compound 0.0316 µM.
The mark [21] stands for this setting: second compound 3.16 µM, first compound 0.1 µM.
[22] abbreviates: second compound 10 µM, first compound 0.00316 µM.
Setting [23] is: second compound 10 µM, first compound 0.01 µM.
The mark [24] stands for this setting: second compound 10 µM, first compound 0.0316 µM.
The mark [25] stands for this setting: second compound 10 µM, first compound 0.1 µM.
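Also: spheroids exposed to agents for seven days.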

On to `CC(C)CC(NC(=O)C(Cc1ccccc1)NC(=O)c1cnccn1)B(O)O` (centres undefined) + NC1CCC(NC2CC2c2ccccc2)CC1, for which the half-inhibitory concentration (IC50) was less than 0.316 nM under setting [1]; less than 0.316 nM under setting [2]; less than 0.316 nM under setting [3]; less than 0.316 nM under setting [4]; less than 0.316 nM under setting [5]. Further, the viability, T/C was 7.87% (second compound 0.1 µM, first compound 0.000316 µM); 0.11% (second compound 0.1 µM, first compound 0.001 µM); 0.13% under setting [6]; 0.13% under setting [7]; 0.08% under setting [8]; 0.24% under setting [9]. Also, the viability, T/C is, setting by setting: (second compound 0.316 µM, first compound 0.000316 µM) 7.18%; (second compound 0.316 µM, first compound 0.001 µM) 0.45%; under setting [10], 0.63%; under setting [11], 0.39%; under setting [12], 0.44%; under setting [13], 1.89%. In addition, the viability, T/C reads like this: (second compound 1 µM, first compound 0.000316 µM) 11.7%; (second compound 1 µM, first compound 0.001 µM) 0.44%; under setting [14], 0.91%; under setting [15], 0.17%; under setting [16], 0.08%; under setting [17], 0.43%. The viability, T/C (second compound 3.16 µM, first compound 0.000316 µM) was 7.91%; the viability, T/C (second compound 3.16 µM, first compound 0.001 µM) is 0.49%; the viability, T/C under setting [18] was 0.13%; the viability, T/C under setting [19] was 0.07%; the viability, T/C under setting [20] was 0.75%; the viability, T/C under setting [21] was 0.19%. Besides, the viability, T/C by setting is: (second compound 10 µM, first compound 0.000316 µM) 5.64%; (second compound 10 µM, first compound 0.001 µM) 0.22%; under setting [22], 0.25%; under setting [23], 0.49%; under setting [24], 0.46%; under setting [25], 0.24%.
For `Nc1ccn(C2OC(CO)C(O)C2(F)F)c(=O)n1` (centres undefined), the viability, T/C (compound 0.000949 µM) was 73.7% and 82.5%; the viability, T/C (compound 0.003 µM) was 48.6% and 31.7%; the viability, T/C (compound 0.00949 µM) was 36% and 23.9%; the viability, T/C (compound 0.03 µM) is 36.7% and 26.2%; the viability, T/C (compound 0.0949 µM) is 40.7% and 26.8%; the viability, T/C (compound 0.3 µM) is 35.3% and 23.3%. In addition, the IC50 (curve of compound) was 2.64 nM and 1.98 nM.
For `Nc1ncn(C2CC(O)C(CO)O2)c(=O)n1` (centres undefined) + NC1CCC(NC2CC2c2ccccc2)CC1, the IC50 by setting is: under setting [1], greater than 1000 nM; under setting [2], greater than 1000 nM; under setting [3], greater than 1000 nM; under setting [4], greater than 1000 nM; under setting [5], greater than 1000 nM. For the same molecule, the viability, T/C is 96% under setting [6]; 98% under setting [7]; 87.2% under setting [8]; 80% under setting [9]; 79.3% (second compound 0.1 µM, first compound 0.316 µM); 77.2% (second compound 0.1 µM, first compound 1 µM). The viability, T/C runs as follows: under setting [10], 87.8%; under setting [11], 90.2%; under setting [12], 84%; under setting [13], 82.2%; (second compound 0.316 µM, first compound 0.316 µM) 79.1%; (second compound 0.316 µM, first compound 1 µM) 77.7%. Further, the viability, T/C is 96.5% under setting [14]; 84.3% under setting [15]; 89.5% under setting [16]; 75.2% under setting [17]; 71.8% (second compound 1 µM, first compound 0.316 µM); 76.8% (second compound 1 µM, first compound 1 µM). In addition, the viability, T/C under setting [18] was 88.9%; the viability, T/C under setting [19] was 84.5%; the viability, T/C under setting [20] was 82.7%; the viability, T/C under setting [21] was 67.2%; the viability, T/C (second compound 3.16 µM, first compound 0.316 µM) is 80.5%; the viability, T/C (second compound 3.16 µM, first compound 1 µM) was 76.7%. Besides, the viability, T/C under setting [22] is 73.8%; the viability, T/C under setting [23] is 82.5%; the viability, T/C under setting [24] was 76.4%; the viability, T/C under setting [25] was 70.8%; the viability, T/C (second compound 10 µM, first compound 0.316 µM) is 65.9%; the viability, T/C (second compound 10 µM, first compound 1 µM) is 64.7%.
Turning to `CC1COCCN1c1cc(-c2ccnn2C)c2ccnc(-c3ccn[nH]3)c2n1` (centres undefined), the viability, T/C is, setting by setting: (compound 0.00316 µM) 70% and 55.8%; (compound 0.01 µM) 65.8% and 55.1%; (compound 0.0316 µM) 51.8% and 34.4%; (compound 0.1 µM) 42.8% and 25.6%; (compound 0.316 µM) 36.3% and 26.9%; (compound 1 µM) 14.7% and 9.75%. Also, for the setting “curve of compound”, the IC50 was 52.9 nM and 8.58 nM.

By IC50 is commonly meant the concentration at which inhibition is half-maximal. A word on the viability, T/C: it is the ratio of treated to control.
